Reference: patent US20110318741A1, “BIOMARKERS FOR THE TREATMENT OF PSORIASIS” (priority 2010, published 2011)

Tested on: psoriasis lesional skin
Experiment: Histological analysis (immunohistochemistry, H&E) of skin biopsies from psoriasis patients in a clinical trial
Format: in vivo, human
Conditions: for CD56 in Epidermis: Biopsy Parameters Median Change (%) / Langerin in Dermis: Biopsy Parameters Median Change (%) / CD11c in Epidermis: Biopsy Parameters Median Change (%) / CD3 in Dermis: Biopsy Parameters Median Change (%) / CD3 in Epidermis: Biopsy Parameters Median Change (%) / Thickness: Biopsy Parameters Median Change (%) / CD11c in Dermis: Biopsy Parameters Median Change (%) / CD56 in Dermis: Biopsy Parameters Median Change (%) / Langerin in Epidermis: Biopsy Parameters Median Change (%): subjects also with PASI values
Procedure: Skin biopsies were evaluated on 20 patients in a clinical trial, where 20 mg of (S)—N-(2-(1-(3-ethoxy-4-methoxyphenyl)-2-(methylsulfonyl)ethyl)-1,3-dioxoisoindolin-4-yl)acetamide was administered b.i.d. to patients with psoriasis. Skin biopsies were done 4 weeks and 12 weeks post-treatment.
The biopsies were subjected to a histological analysis in which response was assessed in H&E stained sections of skin biopsies and after staining frozen sections of skin biopsies with antibodies to keratin 16. CD3, CD11c. ICAM-1. Langerin, CD56, Foxp3, and HLA-DR. This analysis thus included an assessment of epidermal growth/differentiation, skin infiltration by T-cells and DC subsets, presence of regulatory T-cells, and presence of inflammation-regulating molecules in skin lesions.
The pharmacodynamic effects of (S)—N-(2-(1-(3-ethoxy-4-methoxyphenyl)-2-(methylsulfonyl)ethyl)-1,3-dioxoisoindolin-4-yl)acetamide were studied in skin biopsies from subjects treated with the compound in a phase 2, multi-center, open-label study evaluating the safety, tolerability, and efficacy of the compound in recalcitrant psoriasis vulgaris. Skin biopsies were taken from uninvolved and involved skin at baseline, and from involved skin after treatment with (S)—N-(2-(1-(3-ethoxy-4-methoxyphenyl)-2-(methylsulfonyl)ethyl)-1,3-dioxoisoindolin-4-yl)acetamide 20 mg BID after 4 and 12 weeks.
Skin biopsies were evaluated on 20 patients in this trial. The biopsies were analyzed by immunohistochemistry for a set of cellular markers (keratin 16, CD3. CD11c. ICAM-1, Langerin, CD56, Foxp3, and HLA-DR) to assess epidermal growth/differentiation, skin infiltration by T-cells and dendritic cells (DC), presence of regulatory T-cells, and the presence of inflammation-regulating molecules in skin lesions.

CCOc1cc([C@@H](CS(C)(=O)=O)N2C(=O)c3cccc(NC(C)=O)c3C2=O)ccc1OC [(S)—N-(2-(1-(3-ethoxy-4-methoxyphenyl)-2-(methylsulfonyl)ethyl)-1,3-dioxoisoindolin-4-yl)acetamide]
CD3+ T cells in the epidermis and dermis (20 mg BID): significant reductions
CD56+ NK cells in the epidermis (20 mg BID): significant reductions
CD56 in Epidermis: Biopsy Parameters Median Change (%) (Week 4, 20 mg BID, No. 16): −75.6%
Langerin in Dermis: Biopsy Parameters Median Change (%) (Week 4, 20 mg BID, No. 17): −50.0%
CD11c in Epidermis: Biopsy Parameters Median Change (%) (Week 4, 20 mg BID, No. 18): −73.1%
CD3 in Dermis: Biopsy Parameters Median Change (%) (Week 4, 20 mg BID, No. 19): −24.5%
CD3 in Epidermis: Biopsy Parameters Median Change (%) (Week 4, 20 mg BID, No. 19): −35.0%
Thickness: Biopsy Parameters Median Change (%) (Week 4, 20 mg BID, No. 19): −22.9%
CD11c in Dermis: Biopsy Parameters Median Change (%) (Week 4, 20 mg BID, No. 20): −45.8%
CD56 in Dermis: Biopsy Parameters Median Change (%) (Week 4, 20 mg BID, No. 20): −27.6%
Langerin in Epidermis: Biopsy Parameters Median Change (%) (Week 4, 20 mg BID, No. 20): 9.49%
CD3 T cells in Dermis: Median % change from baseline (Week 4, 20 mg b.i.d.): −24.5%
CD3 T cells in Epidermis: Median % change from baseline (Week 4, 20 mg b.i.d.): −35.0%
CD11c myeloid DC in Dermis: Median % change from baseline (Week 4, 20 mg b.i.d.): −45.8%
CD11c myeloid DC in Epidermis: Median % change from baseline (Week 4, 20 mg b.i.d.): −73.1%
CD56 NK cells in Dermis: Median % change from baseline (Week 4, 20 mg b.i.d.): −27.6%
CD56 NK cells in Epidermis: Median % change from baseline (Week 4, 20 mg b.i.d.): −75.6%
Epidermal Thickness: Median % change from baseline (Week 4, 20 mg b.i.d.): −22.9%
Langerin in Dermis: Median % change from baseline (Week 4, 20 mg b.i.d.): −50.0%
Langerin in Epidermis: Median % change from baseline (Week 4, 20 mg b.i.d.): 9.5%
reduction of epidermal CD11c+ infiltrates (Week 4, 20 mg b.i.d.): 73%
CD56 in Epidermis: Biopsy Parameters Median Change (%) (Week 12, 20 mg BID, No. 12): −77.6%
Langerin in Dermis: Biopsy Parameters Median Change (%) (Week 12, 20 mg BID, No. 12): −67.0%
CD11c in Epidermis: Biopsy Parameters Median Change (%) (Week 12, 20 mg BID, No. 13): −97.5%
CD11c in Dermis: Biopsy Parameters Median Change (%) (Week 12, 20 mg BID, No. 14): −56.0%
Thickness: Biopsy Parameters Median Change (%) (Week 12, 20 mg BID, No. 14): −34.8%
CD3 in Dermis: Biopsy Parameters Median Change (%) (Week 12, 20 mg BID, No. 15): −63.1%
CD3 in Epidermis: Biopsy Parameters Median Change (%) (Week 12, 20 mg BID, No. 15): −56.1%
CD56 in Dermis: Biopsy Parameters Median Change (%) (Week 12, 20 mg BID, No. 15): −18.2%
Langerin in Epidermis: Biopsy Parameters Median Change (%) (Week 12, 20 mg BID, No. 15): 41.67%
CD3 T cells in Dermis: Median % change from baseline (Week 12, 20 mg b.i.d.): −62.0%
CD3 T cells in Epidermis: Median % change from baseline (Week 12, 20 mg b.i.d.): −47.4%
CD11c myeloid DC in Dermis: Median % change from baseline (Week 12, 20 mg b.i.d.): −54.6%
CD11c myeloid DC in Epidermis: Median % change from baseline (Week 12, 20 mg b.i.d.): −88.6%
CD56 NK cells in Dermis: Median % change from baseline (Week 12, 20 mg b.i.d.): −12.5%
CD56 NK cells in Epidermis: Median % change from baseline (Week 12, 20 mg b.i.d.): −73.3%
Epidermal Thickness: Median % change from baseline (Week 12, 20 mg b.i.d.): −34.3%
Langerin in Dermis: Median % change from baseline (Week 12, 20 mg b.i.d.): −57.9%
Langerin in Epidermis: Median % change from baseline (Week 12, 20 mg b.i.d.): 17.1%
reduction of epidermal CD11c+ infiltrates (Week 12, 20 mg b.i.d.): 84%
cases showing improvement in psoriasis (reduction in epidermal hyperplasia and/or keratin 16 staining) (day 29, of the 20 cases analyzed, 20 mg b.i.d.): 10 cases
T-cells in biopsies (day 29 and day 85 biopsies, overall reductions not statistically significant): reductions
median reduction in epidermal thickness (day 85, 20 mg b.i.d.): 34%
epidermal Langerhan's cells (day 85 biopsies): small increase
cases showing absence of keratin 16 staining (day 85 biopsies, 20 mg b.i.d.): 5 cases
cases showing disease improvement (day 85 biopsies, of the 20 cases analyzed, 20 mg b.i.d.): Nine
CD56+ cells (NK cells or NK-T-cells) (during treatment, between week 4 and week 12): minimally altered
inflammatory myeloid CD11c+ DCs (TIP-DCs) (epidermis and dermis, week 4 and week 12, 20 mg BID): major reduction
Langerin in the epidermis (not statistically significant, not elevated in the dermis, 20 mg BID): slightly elevated
reductions in cellular infiltrates in epidermis and dermis, responders vs non-responders (responders: change in PASI of 75% or more at week 12): greater among responders
reduction in epidermal thickness (week 4, all measured values of thickness, 20 mg b.i.d.): 23%
median reduction of dermal CD11c+ DCs (week 4 biopsies, 20 mg b.i.d.): 45%
